Data reported in patent publication US20120204273A1, “COMPOSITIONS RELATING TO A PHOSPHOPROTEIN AND METHODS OF USE” (SANFORD-BURNHAM MEDICAL RESEARCH INSTITUTE, priority 2010, published 2012).

Tested on: HA-CDP138
Assay: Phosphorylation of HA-CDP138 in CHO-T cells (anti-HA IP, PAS antibody blot)
Type: cell-based, hamster
Settings: insulin 100 nM, 15 min
From the text: FIG. 1, panels A-D, show an uncharacterized C2 domain-containing protein encoded by 5730419I09Rik is a novel phosphoprotein identified in insulin-stimulated adipocytes using a SILAC phosphoproteomic approach. (A): Schematic procedure for SILAC quantitative proteomics used for identification and quantification of peptide from CDP138 (5730419I09Rik). Top right panel: quantification of CDP138 peptide from different groups of adipocytes. Lower right panel: Schematic diagram of CDP138 and the identified phosphorylation sites. (B): Confirmation of CDP138 phosphorylation induced by insulin. CHO-T cells expressing HA-CDP138, or differentiated 3T3-L1 adipocytes were treated with or without insulin (100 nM) for 15 min. A third sample was pretreated with wortmannin (100 nM, WM) for 20 min or LY294002 (50 μM, LY) for 1 hour before insulin stimulation. […] CDP138, pS473-Akt and Akt protein were also detected with total cell lysates. […] Whole cell extracts (25 μg total protein) from different tissues (lean mice, left panel) and epididymal fat pads from both ob/ob and lean mice (24 weeks old, Jackson Lab, Bar Harbor, Me.; middle panel) were analyzed by immunoblotting with antibodies against CDP138, IRS-1, Akt, Erk1/2, and β-actin. Right panel: quantification of CDP138 protein levels in fat tissues from lean and obese mice. […]

insulin
phosphorylation of HA-tagged CDP138 detected with PAS antibodies: stimulates phosphorylation
